Tested on: Rat Cerebral Cortex Neuronal Culture
Assay: Apoptosis induction by Amyloid β peptide (Aβ 25-35) in PGT 40/PGT 70-transfected neurons and inhibiting action of PGE 1
Format: cell-based
Details: Aβ 25-35 exposure 24 hours
Description: PGT 40 or PGT 70 cDNA was inserted into pTracer-SV 40 vector (Invitrogen) to construct an expression vector. PGT 40 means the brain-type PGT of the present invention. PGT 70 means the lung-type PGT which was disclosed in the prior art literature.
Fetus of 17 days age (viviparous) was ejected from pregnant rat of SD strain and, in an ice-cold L-15 medium (Invitrogen), cerebral cortex was collected from brain of the fetus. After it was finely cut by scissors, cells were dispersed using a kit for dispersing the neurons (Sumilon), sowed on a polyethyleneimine-coated cover glass (diameter: 12 mm; manufactured by Asahi Technoglass) in a living cell density of 1.6×10^5 cells/cm^2 and cultured (at 37° C. with 5% of CO2). […]
After the cells were fixed (at room temperature for 5 minutes) with a 10% neutral buffered formalin solution, they were stained with 0.01 mg/mL Hoechst 33342 (being dissolved in PBS(−); Molecular Probe) and, under a fluorescent microscope, […] total cell numbers and apoptosis cells (the cells which were aggregated and fragmented by chromatin) were counted in random 20 fields for one example whereupon the apoptosis-positive cell percentage (%) was calculated. […]

| Molecule | action of PGE1 on Aβ-induced apoptosis (PGE 1 0.01, 0.1, 1 and 10 μM added together with Aβ) | effect of PGT expression on anti-apoptosis action of PGE1 (apoptosis-positive cell percentage / apoptosis inhibiting rate) (neurons transfected with PGT expression vector, PGE 1 0.01, 0.1, 1 and 10 μM, Hoechst 33342 staining) |
| --- | --- | --- |
| CCCCC[C@H](O)/C=C/[C@H]1[C@H](O)CC(=O)[C@@H]1CCCCCCC(=O)O [PGE1] | anti-apotosis action |  |
| PGT40: the brain-type PGT (prostaglandin transporter) of the present invention, SEQ ID NO: 3, expressed from pTracer-SV 40 vector |  | accelerate anti-apotosis action of PGE1 |

From patent US20030032793A1, “Gene of PGT of human brain type” (priority 1999, published 2003)
